Experimental findings from US9879013B2, “Purinone derivative” (ONO PHARMACEUTICAL CO., LTD., priority 2010, dated 2018) are described below.

Series [1] deals with Human CYP2C8 (Homo sapiens (Human), UniProt P10632). As to the kind of experiment: Inhibitory action on human CYP2C8. In kind it is in vitro ADME. As for the experimental part:
(§1) Measurement of the Inhibitory Activity on Drug-Metabolizing Enzymes (Inhibitory Action on Human CYP2C8 and Human CYP2C19)
The reaction was carried out in a 96-well plate. […] 100 μL of this reaction mixture and 50 μL of the test compound prepared as described above and the positive control solution prepared as described above were dispensed into each well and pre-incubation was carried out at 10 minutes for 37° C. The reaction was started by the addition of 50 μL NADPH solution (final concentration=1 mmol/L) and incubation was carried out for 30 minutes at 37° C.

For series [2], the target named is Human CYP2C19 (Homo sapiens (Human), UniProt P33261). Briefly: Inhibitory action on human CYP2C19. In kind it is in vitro ADME. As for the experimental part:
as §1
The reaction was carried out in a 96-well plate. The positive control substances (CYP2C8: ketoconazole, CYP2C19: tranylcypromine) were adjusted (CYP2C8: 0.6 and 6 mmol/L, CYP2C19: 0.9 and 9 mmol/L) with DMSO to concentrations that were 300 times the final concentration, and solutions were prepared (CYP2C8: 8 and 80 μmol/L, CYP2C19: 12 and 120 μmol/L) by 75× dilution with purified water that contained 2.7% acetonitrile. The test compounds were adjusted to […] with DMSO and were adjusted to 4 and 40 μmol/L by 75× dilution with purified water that contained 2.7% acetonitrile. A reaction mixture was then prepared (the numerical values are final concentrations) by the addition of potassium phosphate buffer (pH 7.4), magnesium chloride ([…]), substrate (CYP2C8: dibenzylfluorescein 1 μmol/L, CYP2C19: 3-cyano-7-ethoxycoumarin 25 μmol/L), and E. coli-expressed liver microsome CYP2C8 (Cypex, 10 pmol/L) and CYP2C19 (Cypex, 3 pmol/L). 100 μL of this reaction mixture and 50 μL of the test compound prepared as described above and the positive control solution prepared as described above were dispensed into each well and pre-incubation was carried out at 10 minutes for 37° C. The reaction was started by the addition of 50 μL NADPH solution (final concentration=1 mmol/L) and incubation was carried out for 30 minutes at 37° C. The fluorescence intensity was measured (CYP2C8: excitation wavelength=485 nm, fluorescence wavelength=538 nm; CYP2C19: excitation wavelength=409 nm, fluorescence wavelength=460 nm) immediately after the addition of the NADPH and after incubation for 30 minutes.

Series [3] has as its system Human liver cells. Briefly: Ability to reduce the mitochondrial membrane potential in cultured human hepatoma cells (JC-1). As to conditions: JC-1, exposure for 24 hours, read-out: Ability to lower the mitochondrial membrane potential (IC50 (μM)). In kind it is cell-based. An excerpt: (§2) Measurement of the Cytotoxicity and Ability to Reduce the Mitochondrial Membrane Potential in Cultured Human Hepatoma Cells
Tissue that maintains an aerobic equilibrium, e.g., the kidneys and heart, and tissue that is exposed to high drug concentrations and carries out drug metabolism, e.g., the liver, are known to be sensitive to mitochondrial dysfunction (Drug Discovery Today, 12 (17-18), 777-785, 2007). The reduction or extinction of the mitochondrial membrane potential by a drug is caused by the direct inhibition of the electron transport system, decoupling of electron transport from ATP synthase, or the opening of a mitochondrial membrane permeability transition pore. As a consequence, measurement of the mitochondrial membrane potential of liver cells can provide a parameter for hepatotoxicity.
(§3) Human liver cells were seeded into a collagen-coated 96-well plate at a cell density of 30,000 cells/well and incubation was carried out overnight in an incubator at 37° C. in 5% CO2-95% air. The cultured cells were stained for 1 hour with 5,5′,6,6′-tetrahydro-1,1′,3,3′-tetramethyl-benzamidazolocarbocyanine iodide (JC-1) followed by treatment with the test compound. The test compound was dissolved in DMSO and then diluted with the liquid culture medium Hepatocyte Culture Medium (HCM) and added to the cells. The test compound treatment concentrations were 0, 6.25, 12.5, 25, 50, 100, 200, and 400 μmol/L. After exposure to the test compound for 24 hours, measurement was performed with a SpectraMax plate reader (Molecular Devices, LLC) at an excitation wavelength of 485 nm and a fluorescence wavelength of 538 nm and an excitation wavelength of 544 nm and a fluorescence wavelength of 590 nm. The membrane potential was determined by the ratio between the 544 nm/590 nm measurement value and the 485 nm/538 nm measurement value. After this, the ATP concentration in the cells was measured using a Celltiter Glo luminescent assay kit (Promega Corporation) in order to evaluate the cell toxicity of the test compound. The cells were lysed by the assay buffer provided with the measurement kit and the concentration of the ATP released from the cells was measured using the luciferin-luciferase enzyme activity as the index. The emission was measured using a SpectraMax plate reader. […] The ability to lower the mitochondrial membrane potential of the test compounds and the cytotoxicity of the test compounds are given in Table 3 below.

Series [4] relates to Human liver cells. Briefly: Cytotoxicity in cultured human hepatoma cells (ATP concentration, Celltiter Glo). In kind it is cell-based. As to conditions: 50% decline in ATP concentration, exposure for 24 hours, read-out: Toxicity for human liver cells (IC50 (μM)). As for the experimental part: as §2, §3
The nature of series [5]: Stability in the rat liver microsome. As to conditions: 0.5 mg/mL microsomes, NADPH, 15 minutes at 37° C.
Method: (§4) Evaluation of the Stability in the Rat and Human Liver Microsome
(§5) A 0.25 mmol/L solution was prepared by diluting the test compound (10 mmol/L DMSO solution, 5 μL) with an aqueous 50% acetonitrile solution (195 μL).
(§6) 20 μL was collected immediately after the start and the reaction was stopped by the addition to 180 μL of acetonitrile that contained an internal standard (warfarin). 20 μL of this solution was stirred with 180 μL of an aqueous 50% acetonitrile solution on a filter plate for protein depletion followed by suction filtration, and the filtrate was used as the standard sample.
(§7) The previously indicated reaction solution was incubated for 15 minutes at 37° C., and 20 μL was then added to 180 μL cold acetonitrile (contained the internal standard warfarin) to stop the reaction. 20 μL of this was stirred with 180 μL of an aqueous 50% acetonitrile solution on a filter plate for protein depletion followed by suction filtration, and the filtrate was used as the standard sample.
The nature of series [6]: Stability in the human liver microsome. As to conditions: 0.5 mg/mL microsomes, NADPH, 15 minutes at 37° C.
Method: as §4, §5, §6, §7

The structures appear in SMILES notation.

Human CYP2C19, sequence (P33261 whole entry): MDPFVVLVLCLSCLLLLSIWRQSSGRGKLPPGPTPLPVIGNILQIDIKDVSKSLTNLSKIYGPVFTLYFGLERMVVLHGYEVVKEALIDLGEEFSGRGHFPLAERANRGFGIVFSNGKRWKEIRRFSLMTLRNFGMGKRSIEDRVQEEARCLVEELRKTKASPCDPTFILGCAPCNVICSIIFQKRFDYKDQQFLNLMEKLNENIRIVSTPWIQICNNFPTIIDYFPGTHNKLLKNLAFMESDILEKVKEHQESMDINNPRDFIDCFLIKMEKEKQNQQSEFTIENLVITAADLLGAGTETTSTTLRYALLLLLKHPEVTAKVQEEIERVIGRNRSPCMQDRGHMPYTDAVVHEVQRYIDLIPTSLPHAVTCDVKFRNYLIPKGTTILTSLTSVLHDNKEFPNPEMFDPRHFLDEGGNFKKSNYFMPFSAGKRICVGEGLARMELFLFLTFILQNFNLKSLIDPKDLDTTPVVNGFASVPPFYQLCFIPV
Human CYP2C8, sequence (P10632 whole entry): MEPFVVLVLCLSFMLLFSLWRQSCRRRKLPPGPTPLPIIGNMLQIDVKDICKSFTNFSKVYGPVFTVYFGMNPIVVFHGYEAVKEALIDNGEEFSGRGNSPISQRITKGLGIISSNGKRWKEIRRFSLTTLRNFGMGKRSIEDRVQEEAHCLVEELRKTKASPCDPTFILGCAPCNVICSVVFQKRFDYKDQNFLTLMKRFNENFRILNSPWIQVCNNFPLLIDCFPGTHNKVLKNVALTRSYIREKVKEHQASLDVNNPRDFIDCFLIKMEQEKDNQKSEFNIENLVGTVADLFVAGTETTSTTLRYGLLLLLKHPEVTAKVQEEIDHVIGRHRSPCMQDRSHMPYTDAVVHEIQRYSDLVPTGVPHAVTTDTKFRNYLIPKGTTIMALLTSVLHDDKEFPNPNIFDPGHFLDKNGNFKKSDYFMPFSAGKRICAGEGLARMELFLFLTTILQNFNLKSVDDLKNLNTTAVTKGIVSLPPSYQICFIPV

`C#CC(=O)N1CCC(n2nc(-c3ccc(Oc4ccccc4)cc3)c3c(N)ncnc32)C1` (stereo not drawn) [Comparative compound B, reference compound]: the concentration for half-maximal inhibition (IC50) in series [1] was 6.9 µM; in series [2], 8.1 µM; in series [3] it was less than 6.25 µM; in series [4], less than 6.25 µM. Moreover, the “Residual ratio (%) in the rat liver microsome” value in series [5] was found to be 50.6%. Besides, in series [6], the “Residual ratio (%) in the human liver microsome” value is recorded as 55.9%.
